In PubChem BioAssay (NCI):
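These data come from cells grown in 96-well plates and exposed to compound for 48 hours at five concentrations. GI50 is the concentration that inhibits growth by half. TGI: concentration producing complete growth inhibition.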

Columns and labels:
Assay in all cases: NCI tumour cell line growth inhibition, 48 h
HL-60(TB) leukemia = system: HL-60(TB) leukemia
SF-295 CNS = system: SF-295 CNS
KM12 colon = system: KM12 colon
SNB-75 CNS = system: SNB-75 CNS
SNB-19 CNS = system: SNB-19 CNS
LOX IMVI melanoma = system: LOX IMVI melanoma
A549 NSCLC = system: A549 NSCLC
SR leukemia = system: SR leukemia
MOLT-4 leukemia = system: MOLT-4 leukemia
SK-MEL-2 melanoma = system: SK-MEL-2 melanoma

Structure (SMILES)	TGI (HL-60(TB) leukemia)	TGI (SF-295 CNS)	TGI (KM12 colon)	TGI (SNB-75 CNS)	TGI (SNB-19 CNS)	TGI (LOX IMVI melanoma)	TGI (A549 NSCLC)	TGI (SR leukemia)	TGI (MOLT-4 leukemia)	TGI (SK-MEL-2 melanoma)	GI50 (HL-60(TB) leukemia)	GI50 (SF-295 CNS)	GI50 (KM12 colon)	GI50 (SNB-75 CNS)	GI50 (SNB-19 CNS)	GI50 (SK-MEL-2 melanoma)	GI50 (LOX IMVI melanoma)	GI50 (A549 NSCLC)	GI50 (MOLT-4 leukemia)
Cc1ccc(S(=O)(=O)N2CCN(S(=O)(=O)c3ccc(C)cc3)CCN(S(=O)(=O)c3ccc(C)cc3)Cc3cc(Br)c(Br)cc3CN(S(=O)(=O)c3ccc(C)cc3)CC2)cc1	> 100 µM	> 100 µM	> 100 µM	> 100 µM	> 100 µM	> 100 µM	> 100 µM	> 100 µM	> 100 µM										
COc1ccccc1C1c2cc3c(cc2OC(N2CCCC2)C1C)OCO3 (centres undefined)	49 µM	39.3 µM	39.5 µM	27.3 µM	47.9 µM	38.1 µM	46 µM	31.1 µM		29.8 µM									
CCCCCCCCCCCCC(O)C(=O)O (centres undefined)	> 100 µM	> 100 µM	> 100 µM	> 100 µM	> 100 µM	> 100 µM	> 100 µM		> 100 µM	> 100 µM									
C/C(N)=N/OCc1nc(C)no1	> 100 µM	> 100 µM	> 100 µM	> 100 µM	> 100 µM		> 100 µM	> 100 µM	> 100 µM										
COc1cc(C(=O)O)c(-c2cc3c(cc2C=O)OCO3)c(OC)c1OC	> 10 µM	> 10 µM	> 10 µM	> 10 µM	> 10 µM	> 10 µM	> 10 µM	> 10 µM	> 10 µM										
CC(C)N(C(=O)C12C3C4C1C1C2C3C41C(=O)N(C(C)C)C(C)C)C(C)C (centres undefined)	> 50 µM	> 50 µM	> 50 µM	> 50 µM	> 50 µM	> 50 µM	> 50 µM		> 50 µM	> 50 µM									
Cc1ccc(S(=O)(=O)NC(=O)Nc2cc(Cl)c(S(N)(=O)=O)cc2S(N)(=O)=O)cc1	> 100 µM	> 100 µM	> 100 µM	> 100 µM	> 100 µM	> 100 µM	> 100 µM		> 100 µM	> 100 µM									
O=[N+]([O-])/C=C/c1cn(CCCCCCCCCCCCn2cc(/C=C/[N+](=O)[O-])c3ccccc32)c2ccccc12	> 100 µM		> 100 µM			> 100 µM	> 100 µM	> 100 µM	> 100 µM	> 100 µM									
CC(=O)NCCCCN(CCCNC(C)=O)C(=O)OCc1ccccc1	> 100 µM	> 100 µM	> 100 µM	> 100 µM		> 100 µM	> 100 µM		> 100 µM	> 100 µM									
c1cc(CN2CCNCCNCCNCC2)cc(CN2CCNCCNCCNCC2)c1		> 100 µM	> 100 µM	> 100 µM	> 100 µM	> 100 µM	> 100 µM	> 100 µM	> 100 µM	> 100 µM									
CC1SC(c2ccc(Cl)cc2)N(CCc2cccs2)C1=O (centres undefined)	8.73 µM	2.53 µM	3.36 µM	5.99 µM	3.31 µM	2.49 µM	7.41 µM		9.11 µM	2.72 µM	2.58 µM	1.23 µM	1.52 µM	2.05 µM	1.65 µM	1.36 µM	1.23 µM	2.07 µM	2.46 µM
C/C(=N\NC(=S)Nc1ccc([N+](=O)[O-])cc1)c1nc2ncccc2[nH]1	> 100 µM	10.2 µM	> 100 µM	4.1 µM	4 µM		19.1 µM	> 100 µM	13.3 µM	4.06 µM									
COc1ccc(C(=O)Oc2c(C#N)sc3c2c(=O)n(-c2ccccc2)c(=S)n3-c2ccccc2)cc1	49.7 µM	> 100 µM	54.6 µM	> 100 µM	> 100 µM	46.2 µM	> 100 µM		46.5 µM										
CN(C)CC(/C(Cc1ccccc1)=N\NC(=S)NN)c1ccccc1 (centres undefined)	> 100 µM	> 100 µM	> 100 µM	> 100 µM	> 100 µM	> 100 µM	> 100 µM	> 100 µM	> 100 µM										
O=c1[nH]c2nc[nH]c2c(=O)n1C1CCCCC1	> 100 µM	> 100 µM	> 100 µM	> 100 µM	> 100 µM		> 100 µM	> 100 µM	> 100 µM	> 100 µM									
COc1cc(-c2cc(=O)c3ccccc3[nH]2)cc(OC)c1OC	> 7.5 µM	> 75 µM	> 75 µM	> 75 µM	> 75 µM	> 75 µM	> 75 µM	> 75 µM	> 75 µM										
CN(C)C(F)=PC(F)(F)F (centres undefined)	> 100 µM	> 100 µM	> 100 µM	> 100 µM	> 100 µM	> 100 µM	> 100 µM		> 100 µM	> 100 µM									
O=C1/C(=C/c2cccs2)NC(=S)N1CN1CCCCC1		> 100 µM	> 100 µM	> 100 µM	> 100 µM	> 100 µM	> 100 µM	> 100 µM	> 100 µM	> 100 µM									
O=C(Nc1ccc2[nH]c(C(=O)N3CC(CCl)c4ccc([N+](=O)[O-])cc43)cc2c1)c1cc2ccccc2o1 (centres undefined)	> 1100 µM	> 1100 µM	> 1100 µM		> 1100 µM	> 1100 µM	> 1100 µM		> 1100 µM	> 1100 µM									
CSC(=N)N1N=C2/C(=C/c3ccccc3)CCC[C@H]2[C@H]1c1ccccc1	4.29 µM	16.9 µM	23.2 µM		19.3 µM	16.2 µM	16.3 µM	4.6 µM	12.6 µM	15.4 µM									
Oc1cccnc1/C=N/OCc1ccccc1	> 100 µM	> 100 µM	> 100 µM	> 100 µM	> 100 µM	> 100 µM	> 100 µM		> 100 µM	> 100 µM									
O=C(O)C12CC3CC(CC(F)(C3)C1)C2	> 100 µM		> 100 µM	> 100 µM		> 100 µM	> 100 µM		> 100 µM	> 100 µM									
